Like-named read-outs stand apart in the source and are kept apart here.
Columns and labels:
[1] = tested on: maximal electroshock-induced seizures (MES); assay: maximal electroshock-induced seizures (MES) test in mice; format: in vivo; details: Mus musculus
Procedure: The compounds of the present invention may be tested for in vivo anticonvulsant activity after iv. po or ip injection using a number of anticonvulsant tests in mice (audiogenic seizure model in DBA-2 mice, pentylenetetrazol-induced seizures in mice, maximum electroshock seizure test (MES)).
The ability of 1-[4-(4-fluorophenoxy)benzyl]semicarbazide to block maximal electroshock-induced seizures (MES) was determined by the following procedure.
Seizures were induced by application of current (50 mA, 60 pulses/sec, 0.8 msec pulse width, 1 sec duration, D.C.) using a Ugo Basile ECT device (model 7801). Mice were restrained by gripping the loose skin on their dorsal surface and saline-coated corneal electrodes were held lightly against the two cornea. […] A tonic seizure was defined as a hindlimb extension in excess of 90 degrees from plane of the body.
1-[4-(4-Fluorophenoxy)benzyl]semicarbazide was administered iv to mice 10 min before the test procedure.

hSkM1 sodium channels = target: T1, hSkM1 sodium channels (Homo sapiens, UniProt P35499); assay: Electrophysiological assay: whole-cell patch-clamp recordings of voltage-gated Na+ currents in HEK-293 cells stably expressing hSkM1; format: cell-based
T1 construct: expressed in transfected cells
T1 sequence (P35499 whole entry): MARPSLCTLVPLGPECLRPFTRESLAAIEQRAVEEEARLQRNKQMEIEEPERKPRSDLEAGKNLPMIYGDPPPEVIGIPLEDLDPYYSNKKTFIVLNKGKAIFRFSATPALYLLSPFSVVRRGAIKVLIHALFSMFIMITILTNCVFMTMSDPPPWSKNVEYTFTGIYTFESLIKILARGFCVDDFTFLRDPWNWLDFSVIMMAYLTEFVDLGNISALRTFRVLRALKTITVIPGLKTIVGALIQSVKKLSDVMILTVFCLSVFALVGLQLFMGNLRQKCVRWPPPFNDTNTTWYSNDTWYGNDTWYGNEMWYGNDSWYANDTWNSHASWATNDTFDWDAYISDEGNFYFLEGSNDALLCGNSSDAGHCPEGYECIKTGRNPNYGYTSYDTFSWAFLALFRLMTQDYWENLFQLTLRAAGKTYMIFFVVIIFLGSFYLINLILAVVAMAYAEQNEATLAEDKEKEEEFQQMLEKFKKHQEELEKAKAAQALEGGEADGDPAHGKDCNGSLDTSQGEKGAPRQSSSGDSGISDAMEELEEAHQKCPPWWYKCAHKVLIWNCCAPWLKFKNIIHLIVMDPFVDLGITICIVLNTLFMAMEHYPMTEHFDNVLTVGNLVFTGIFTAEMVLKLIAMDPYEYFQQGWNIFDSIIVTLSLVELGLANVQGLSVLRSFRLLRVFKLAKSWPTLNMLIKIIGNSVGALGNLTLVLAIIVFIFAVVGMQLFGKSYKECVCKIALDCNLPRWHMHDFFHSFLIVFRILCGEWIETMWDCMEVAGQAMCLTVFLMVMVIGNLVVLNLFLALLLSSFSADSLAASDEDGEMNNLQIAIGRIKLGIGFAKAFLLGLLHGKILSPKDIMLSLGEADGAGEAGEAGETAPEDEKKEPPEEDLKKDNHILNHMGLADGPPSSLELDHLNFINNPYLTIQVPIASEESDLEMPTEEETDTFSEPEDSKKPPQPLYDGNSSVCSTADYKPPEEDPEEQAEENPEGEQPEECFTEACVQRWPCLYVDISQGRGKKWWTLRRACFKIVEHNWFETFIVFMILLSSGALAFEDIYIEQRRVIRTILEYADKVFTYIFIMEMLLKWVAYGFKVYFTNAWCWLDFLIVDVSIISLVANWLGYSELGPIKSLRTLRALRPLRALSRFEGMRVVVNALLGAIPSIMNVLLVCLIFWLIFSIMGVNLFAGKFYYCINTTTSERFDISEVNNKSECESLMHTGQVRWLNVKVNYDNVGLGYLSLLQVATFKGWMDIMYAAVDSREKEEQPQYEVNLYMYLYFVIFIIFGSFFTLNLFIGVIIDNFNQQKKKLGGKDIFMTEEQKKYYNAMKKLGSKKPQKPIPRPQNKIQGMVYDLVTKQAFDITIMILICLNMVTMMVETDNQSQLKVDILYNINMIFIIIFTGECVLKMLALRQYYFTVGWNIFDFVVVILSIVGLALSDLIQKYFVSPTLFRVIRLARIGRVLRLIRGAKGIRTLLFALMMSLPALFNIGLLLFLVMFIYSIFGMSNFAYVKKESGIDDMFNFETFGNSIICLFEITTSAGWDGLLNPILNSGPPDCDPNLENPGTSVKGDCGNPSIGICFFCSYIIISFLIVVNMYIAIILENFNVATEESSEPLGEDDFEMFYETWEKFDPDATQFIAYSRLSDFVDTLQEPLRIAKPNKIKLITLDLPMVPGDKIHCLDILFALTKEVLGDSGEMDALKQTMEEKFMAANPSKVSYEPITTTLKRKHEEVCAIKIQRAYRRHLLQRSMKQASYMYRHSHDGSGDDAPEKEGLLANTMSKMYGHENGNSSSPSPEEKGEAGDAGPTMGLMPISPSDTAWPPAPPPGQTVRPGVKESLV
Procedure: Electrophysiological Assay:
Cellpreparation: HEK-293 cells stably expressing the hSkM1 isoform of Na^+ channels (generous gift from Dr. A. L. George, Vanderbilt University Medical School) were cultured using standard techniques, as described previously (Verdoorn, T. A, et al., Neuron 4:919-928 (1990)). For electrophysiology, cells were plated onto 35 mm Petri dishes (pre-coated with poly-D-lysine) at a density of 1:40 on the day of re-seeding from confluent cultures. Cells are suitable for recordings for 2-3 days after plating.
Patch-clamp recordings of voltage-sensitive Na^+ currents: Whole-cell voltage-clamp recordings were made using conventional patch-clamp techniques (Hamill et al, Pfluegers Arch. 391:85-100 (1981)) with an Axopatch 200 A amplifier (Axon Instruments, Foster City, Calif.). Recordings were made within 2-3 hours after neuron dissociation. The recording chamber was continuously superfused with the external solution (150 mM NaCl, 5.4 mM KCl, 1.8 mM CaCl2, 1 mM MgCl2, 10 mM HEPES, 10 mM glucose, pH 7.4 (NaOH)) at a speed of about 1 ml/min. Recording pipettes were pulled from thick-walled capillaries (WPI, Sarasota, Fla.) and fire-polished. The pipette resistances ranged from 1 to 3 M.OMEGA. when the pipettes were filled with internal solution containing (in mM): 110 CsF, 10 NaCl, 5 MgCl2, 11 EGTA, 10 HEPES, pH adjusted to 7.4 with CsOH. Osmolality was set with a difference of 15-20 mmol/kg between external and internal solutions (lower inside the cell). Drugs and intervening wash-outs were applied through a linear array of flow pipes (Drummond Microcaps, 2-μl, 64-mm length). Compounds are dissolved in dimethylsulfoxide (DMSO) to make a […] stock solution, which was subsequently diluted into the external solution to give final concentrations of 0.1-100 μM. At the highest (1%) concentration, DMSO inhibited the size of Na^+ current only slightly. Currents were recorded at room temperature (22-25° C.), filtered at 5 kHz with an active 8-pole Bessel filter (Frequency Devices, Haverhill, Mass.), digitized at 10-50-μs intervals, and stored using Digidata 1200 analog/digital interface with Pclamp6/Clampex software (Axon Instruments).Series resistance was cancelled typically by ~75% when necessary. The inhibitory potency of drugs was assessed by measuring reductions in the peak amplitude of Na^+ currents induced by increasing concentrations of compounds tested. Na^+ currents were elicited by stepping membrane voltage from holding potentials over the range -100 mV to -50 mV, to a pulse potential of -10 mV. The test pulse duration was 5-10 msec, repeated at a frequency ≤1 Hz. Concentration-inhibition curves were fitted with equation 1:
I/Icontrol =1/(1+([compound]/IC50)) Eq. 1 […]

[2] = tested on: global and focal ischemia; details: animal models of global and focal ischemia; cited from earlier work
ALS = details: subset of patients with ALS; cited from earlier work
[3] = HEK-293 cells stably expressing hSkM1

For NC(=O)NNCc1ccc(Oc2ccc(F)cc2)cc1 [1-[4-(4-Fluorophenoxy)benzyl]semicarbazide], the ED50 ([1]; 10 min, iv, 10 min before the test, read-out: ED50 (the dose protecting 50% of animals) against MES) was 4.2 mg/kg, the “inhibition of voltage-gated sodium currents” value (hSkM1 sodium channels; [3]) was “dose-dependent inhibition” and the “sensitivity of blocking effect on Na+ currents to the holding voltage” value (hSkM1 sodium channels; [3]) was “highly sensitive to the holding voltage”. For the same compound, the Kd (hSkM1 sodium channels; inactivated sodium channels, read-out: apparent antagonist dissociation constant (Kd) for inactivated sodium channels) was roughly 7.5 µM and the “potency towards Na+ channels in their resting states” value (hSkM1 sodium channels; resting states) was “weak potency”.

In the case of CN1CCN(c2ncc(-c3cc(Cl)cc(Cl)c3Cl)c(N)n2)CC1 [BW619C89], the neuroprotective activity [2] is listed as “neuroprotective”.

In the case of NC(=O)NNCc1ccc(Oc2ccc(F)cc2)c(F)c1 [1-[3-Fluoro-4-(4-fluorophenoxy)benzyl]semicarbazide], the ED50 ([1]; po, read-out: ED50 against MES) is reported as 3.2 mg/kg.

In the case of Nc1nc2ccc(OC(F)(F)F)cc2s1 [riluzole], the survival (ALS) is given as “prolong survival”.

For Cc1ccc(-c2nc(C)c(CN3CCN(C(c4ccccc4)c4ccccc4)CC3)[nH]2)cc1 [lifarizine], the neuroprotective activity [2] is listed as “neuroprotective”.

From US6281211A, “Substituted semicarbazides and the use thereof” (Euro-Celtique S.A., priority 2000, dated 2001)
